# Test results published in US7390826B2, “Inhibitors of animal cell motility and growth” (The Board of Trustees of The University of Illinois, priority 2002, dated 2008).
# Entries after “also recorded” stand apart in the source; their conditions may differ.
# What was measured:
# [1] = tested on: Keller sandwich explants; test: convergent extension in Keller sandwich explants; parameters: species or system frog
# Excerpt: It is hypothesized, but not relied upon herein, that the effects of compound 1 are mediated by an activity or activities after stage 9 during gastrulation and neurulation, and its effects on blastopore closure and anteroposterior elongation are consistent with inhibition of convergent extension. […] Therefore, compound 1 affects cell motility, cell polarity, and/or cell adhesion in the embryo.
# [2] = tested on: Escherichia coli (DH5a strain); test: bacterial growth (absorbance at 600 nm); type: cell-based; details: 50 μM
# Experimental: (§1) Reported values are the mean ±SEM for triplicate samples.
# (§2) Bacterial growth: Staphylococcus aureus or Escherichia coli (DH5a strain) were grown in Luria-Bertani (LB) medium for 12 hours at 37° C. in a shaking incubator. Dilutions into fresh LB medium with 0.1% DMSO (solvent carrier control) or 50 μM compound 1 were made to an absorbance at 600 nm (A600) of about 0.1. Bacteria were incubated at 37° C. with shaking during the experiment, and A600 measurements were made at set time intervals during log growth phase until the plateau phase was reached.
# [3] = tested on: Staphylococcus aureus; test: bacterial growth (absorbance at 600 nm); type: cell-based; details: 50 μM; for absorbance at 600 nm: mean ± SEM
# Experimental: as §1, §2
# [4] = tested on: MDCK cell wounds; test: lamellipodial density at the margin of MDCK cell wounds; type: cell-based, canine; details: for Lamellipodial Density: 50 μM, mean ± SEM, * p<0.05 vs control
# Experimental: Lamellipodial protrusion is known to drive most forms of animal cell crawling. At any given time in the migrating cell sheet, some cells are extending lamellipodia at the margin while others are not. […] Therefore, inhibition of cell sheet migration by compound 1 at least in part is attributed to reduced formation of lamellipodia at the would margin.
# Lamellipodial density at the margin of MDCK cell wounds was determined under the following treatment conditions: 0.1% DMSO (control, n=25 wounded monolayers), 50 μM compound 1 (n=19), or 50 μM compound 11 (n=10). Lamellipodial density is the number of lamellipodial protrusions detected at the wound margin until closure for the times indicated divided by margin perimeter length. Values are mean±SEM.
# Wound closure assay and compound screening: MDCK cells were plated on multiwell tissue culture plates and cultured at 37° C. and 5% CO2 with medium changes every two days until confluent. When the cultures reached confluence, medium was changed again and all experimental treatments were begun a day later. Compounds were solubilized in dimethyl sulfoxide (DMSO) and added with fresh-medium to cell cultures at initial screening concentrations of 10 and 100 μM. Controls consisted of parallel wells to-which DMSO solvent carrier alone was added at the same concentration as that added with experimental treatments (not exceeding 0.1% (v/v)). DMSO alone at this concentration had no detectable effect on the cells. Monolayers were scraped 30 min later with a micropipette and ultramicro tips, allowing small wounds of consistent size to be generated. Progress of wound closure was examined at set time intervals following wounding by microscope, and inhibitory or acceleratory effects on wound closure relative to parallel controls noted. […] Digital images of the wounded monolayers were taken every 2 hours for 18 hours, and then at 30, 36, 54, 60, and 72 hours following wounding. The number of lamellipodia at the wound margin was also counted at these times.
# [5] = tested on: MDCK cells; test: Trypan blue exclusion cell viability assay; type: cell-based, canine
# Excerpt: Cells also remain normal in morphology with both cell-substratum and cell-cell adhesion intact after treatment with compound 1.
structure (smiles),measurement,setting,value
"C/C=C/C(=O)N1C(=O)OC[C@@H]1Cc1ccccc1 [Compound 1, (4S)-3-((E)-2-butenoyl)-4-benzyl-2-oxazolidinone]",convergent extension,[1],inhibits convergent extension
same,inhibition of growth of Escherichia coli (Gram-negative),[2],does not inhibit the growth
same,inhibition of growth of Staphylococcus aureus (Gram-positive),[3],does not inhibit the growth
same,absorbance at 600 nm,[3]; 0 hours,0.117 ± 0.037
same,absorbance at 600 nm,[3]; 1 hours,0.160 ± 0.056
same,absorbance at 600 nm,[3]; 2 hours,0.332 ± 0.130
same,absorbance at 600 nm,[3]; 3 hours,0.615 ± 0.162
same,absorbance at 600 nm,[3]; 4 hours,0.937 ± 0.181
same,absorbance at 600 nm,[3]; 27 hours,3.265 ± 0.196
same,absorbance at 600 nm,[3]; 31 hours,3.608 ± 0.271
same,Lamellipodial Density,[4]; 2 hours,0.341 ± 0.119
same,Lamellipodial Density,[4]; 4 hours,0.573 ± 0.194*
same,Lamellipodial Density,[4]; 6 hours,0.563 ± 0.142*
same,Lamellipodial Density,[4]; 8 hours,0.938 ± 0.184*
same,Lamellipodial Density,[4]; 10 hours,0.803 ± 0.203
same,Lamellipodial Density,[4]; 12 hours,0.520 ± 0.124*
same,cells extending lamellipodia at the margin,[4]; versus control,significantly fewer cells extending lamellipodia at the margin
same,toxicity at concentrations that inhibit cell migration,[5],no general toxicity; also recorded: no evidence of toxicity or metabolic distress
